Laboratory results reported in ChEMBL document CHEMBL3885861, “Open TG-GATES”.

Species: Rattus norvegicus
Test: Open TG-GATES - Regimen: Single
Assay type: toxicity, organism-based, Sprague-Dawley
Design: regimen Single, gender Male, age 6 weeks
Conditions: in vivo, po, 100 mg/kg, route gavage, dose level Middle; for APTT / Bas / Eos / Fbg / Hb / Ht / Lym / MCH / MCHC / MCV / Mono / Neu / PT / Plat / RBC / Ret / WBC: tissue Blood; for KIDNEY_L / KIDNEY_R / KIDNEY_TOTAL: tissue Kidney; for LIVER: tissue Liver; for A/G / ALP / ALT / AST / BUN / CRE / Ca / Cl / DBIL / GLC / IP / K / LDH / Na / PL / RALB / TBIL / TC / TG / TP / gamma-GTP: tissue Plasma

C[C@]12CCC(=O)C=C1CC[C@@H]1[C@@H]2CC[C@@]2(C)[C@H]1CC[C@]2(C)O [METHYLTESTOSTERONE]
TERMINAL_BW (3 h): 202.8 g
APTT (3 h): 15.1 s
Bas (3 h): 0%
Eos (3 h): 1%
Fbg (3 h): 298.8 mg/dL
Hb (3 h): 12.9 g/dL
Ht (3 h): 37.9%
Lym (3 h): 72.2%
MCH (3 h): 22.2 pg
MCHC (3 h): 34.1%
MCV (3 h): 65 fL
Mono (3 h): 4.2%
Neu (3 h): 22.4%
PT (3 h): 13.1 s
Plat (3 h): 111.5 x10_4/uL
RBC (3 h): 582.8 x10_4/ul
Ret (3 h): 8.9%
WBC (3 h): 65.4 x10_2/uL
KIDNEY_L (3 h): 0.9 g
KIDNEY_R (3 h): 0.9 g
KIDNEY_TOTAL (3 h): 1.8 g
LIVER (3 h): 9.3 g
A/G (3 h): 0.9
ALP (3 h): 1276.2 IU/L
ALT (3 h): 45.6 IU/L
AST (3 h): 74 IU/L
BUN (3 h): 11 mg/dL
CRE (3 h): 0.2 mg/dL
Ca (3 h): 11 mg/dL
Cl (3 h): 106.2 meq/L
DBIL (3 h): 0.01 mg/dL
GLC (3 h): 184.8 mg/dL
IP (3 h): 9.6 mg/dL
K (3 h): 4.3 meq/L
LDH (3 h): 73.8 IU/L
Na (3 h): 141.2 meq/L
PL (3 h): 136.2 mg/dL
RALB (3 h): 2.5 g/dL
TBIL (3 h): 0.042 mg/dL
TC (3 h): 74 mg/dL
TG (3 h): 63 mg/dL
TP (3 h): 5.4 g/dL
gamma-GTP (3 h): 1 IU/L
TERMINAL_BW (6 h): 202.3 g
APTT (6 h): 16.9 s
Bas (6 h): 0%
Eos (6 h): 1%
Fbg (6 h): 274.4 mg/dL
Hb (6 h): 13 g/dL
Ht (6 h): 37.9%
Lym (6 h): 74.4%
MCH (6 h): 21.5 pg
MCHC (6 h): 34.3%
MCV (6 h): 62.6 fL
Mono (6 h): 3.6%
Neu (6 h): 20.8%
PT (6 h): 13.4 s
Plat (6 h): 103.9 x10_4/uL
RBC (6 h): 606.6 x10_4/ul
Ret (6 h): 8.3%
WBC (6 h): 68.3 x10_2/uL
KIDNEY_L (6 h): 0.9 g
KIDNEY_R (6 h): 0.9 g
KIDNEY_TOTAL (6 h): 1.8 g
LIVER (6 h): 8.3 g
A/G (6 h): 0.9
ALP (6 h): 1515.6 IU/L
ALT (6 h): 38 IU/L
AST (6 h): 75.6 IU/L
BUN (6 h): 9.4 mg/dL
CRE (6 h): 0.2 mg/dL
Ca (6 h): 10.7 mg/dL
Cl (6 h): 107.4 meq/L
DBIL (6 h): 0.014 mg/dL
GLC (6 h): 181.6 mg/dL
IP (6 h): 9.8 mg/dL
K (6 h): 4.3 meq/L
LDH (6 h): 56 IU/L
Na (6 h): 141.2 meq/L
PL (6 h): 126.4 mg/dL
RALB (6 h): 2.5 g/dL
TBIL (6 h): 0.048 mg/dL
TC (6 h): 64 mg/dL
TG (6 h): 49.4 mg/dL
TP (6 h): 5.3 g/dL
gamma-GTP (6 h): 1.2 IU/L
TERMINAL_BW (9 h): 203.2 g
APTT (9 h): 16.2 s
Bas (9 h): 0%
Eos (9 h): 1%
Fbg (9 h): 296 mg/dL
Hb (9 h): 13.2 g/dL
Ht (9 h): 38.4%
Lym (9 h): 76.8%
MCH (9 h): 21.5 pg
MCHC (9 h): 34.3%
MCV (9 h): 62.9 fL
Mono (9 h): 2.8%
Neu (9 h): 18.8%
PT (9 h): 13.5 s
Plat (9 h): 112.3 x10_4/uL
RBC (9 h): 611.6 x10_4/ul
Ret (9 h): 8.1%
WBC (9 h): 69 x10_2/uL
KIDNEY_L (9 h): 0.9 g
KIDNEY_R (9 h): 0.8 g
KIDNEY_TOTAL (9 h): 1.7 g
LIVER (9 h): 8.1 g
A/G (9 h): 0.9
ALP (9 h): 1516.6 IU/L
ALT (9 h): 37.8 IU/L
AST (9 h): 70.2 IU/L
BUN (9 h): 8.2 mg/dL
CRE (9 h): 0.2 mg/dL
Ca (9 h): 10.5 mg/dL
Cl (9 h): 107.6 meq/L
DBIL (9 h): 0.016 mg/dL
GLC (9 h): 177.6 mg/dL
IP (9 h): 10.4 mg/dL
K (9 h): 4.3 meq/L
LDH (9 h): 69.4 IU/L
Na (9 h): 141.8 meq/L
PL (9 h): 119.2 mg/dL
RALB (9 h): 2.5 g/dL
TBIL (9 h): 0.046 mg/dL
TC (9 h): 53.6 mg/dL
TG (9 h): 89.8 mg/dL
TP (9 h): 5.3 g/dL
gamma-GTP (9 h): 1.2 IU/L
TERMINAL_BW (24 h): 205.5 g
APTT (24 h): 16.9 s
Bas (24 h): 0%
Eos (24 h): 1%
Fbg (24 h): 278.2 mg/dL
Hb (24 h): 13.1 g/dL
Ht (24 h): 38.5%
Lym (24 h): 77.6%
MCH (24 h): 21.5 pg
MCHC (24 h): 34.1%
MCV (24 h): 62.9 fL
Mono (24 h): 3%
Neu (24 h): 18.2%
PT (24 h): 13.3 s
Plat (24 h): 117.9 x10_4/uL
RBC (24 h): 613 x10_4/ul
Ret (24 h): 7.7%
WBC (24 h): 94.4 x10_2/uL
KIDNEY_L (24 h): 0.9 g
KIDNEY_R (24 h): 0.9 g
KIDNEY_TOTAL (24 h): 1.8 g
LIVER (24 h): 9.5 g
A/G (24 h): 0.9
ALP (24 h): 1929.2 IU/L
ALT (24 h): 51.2 IU/L
AST (24 h): 76.2 IU/L
BUN (24 h): 14.8 mg/dL
CRE (24 h): 0.2 mg/dL
Ca (24 h): 11.1 mg/dL
Cl (24 h): 105.6 meq/L
DBIL (24 h): 0.022 mg/dL
GLC (24 h): 189.2 mg/dL
IP (24 h): 8.5 mg/dL
K (24 h): 4.3 meq/L
LDH (24 h): 97.8 IU/L
Na (24 h): 140.6 meq/L
PL (24 h): 142 mg/dL
RALB (24 h): 2.6 g/dL
TBIL (24 h): 0.032 mg/dL
TC (24 h): 65.4 mg/dL
TG (24 h): 141 mg/dL
TP (24 h): 5.6 g/dL
gamma-GTP (24 h): 1.4 IU/L
